On data set [1], the source says:
4. Solubility. […] We compared the solubility of 1, Pd-1, Zn-1 and Mg-1 in common organic solvents (CH2Cl2, THF, MeOH, ethyl acetate, toluene).

The conditions of data set [2]: background statement; cited from earlier work.
Data set [3] can be described thus: Stability of the magnesium chelate in solution and on silica column chromatography. Format: physicochemical. The method, then: Thus, refluxing a mixture of 2 (100 mM) in toluene containing DBU (10 equiv vs. 2) and MgBr2 (3 equiv) in the presence of air afforded Mg(II)porphine (Mg-1) in 41% yield. Note that no quinone oxidant is required. Mg(II)porphine was purified by filtration through an alumina column. No free base porphine was detected in the reaction mixture. […] Neither starting material nor macrocyclic byproducts were detected. Therefore we performed the purification of Mg-1 without column chromatography. The crude reaction mixture was concentrated. The resulting oily material was treated with THF, filtered (to remove the polymeric material and inorganic salt), and filtrate was concentrated. Subsequent washing with water (to remove an excess of DBU) and crystallization from ethanol/water afforded Mg-1 in satisfactory purity. […] Note that Mg(II)porphine (Mg-1) was previously prepared by metalation of 1.^2

For the compound Zn(II)porphine [Zn-1], the “general trend in solubility” value in data set [1] is on record as “Pd-1<1<Zn-1<<Mg-1”.

For Pd(II)porphine [Pd-1], the “general trend in solubility” value in data set [1] is given as “Pd-1<1<Zn-1<<Mg-1”.

Regarding `C1=Cc2cc3ccc(cc4nc(cc5ccc(cc1n2)[nH]5)C=C4)[nH]3` [compound 1, Porphine], in data set [1], the “general trend in solubility” value was “Pd-1<1<Zn-1<<Mg-1” and the “solubility in common organic solvents” value is given as “poor solubility”. The “solubility of the free base” value in data set [2] was “extremely low solubility”.

As for Mg(II)porphine [Mg-1], in data set [1], the “general trend in solubility” value is “Pd-1<1<Zn-1<<Mg-1” and the “solubility in common organic solvents” value is listed as “sufficiently high”. Besides, the stability in solution entry in data set [3] (in solution) is recorded as “stable in solution”. Moreover, the “behaviour upon silica column chromatography” value in data set [3] (silica column chromatography) is listed as “partial decomplexation”.

The values above are taken from patent US7964720B2, “Method of making porphyrins” (North Carolina State University, priority 2007, dated 2011).
